{
  "source": "patent US8993725B2",
  "about": "“Notch-based fusion proteins and uses thereof” (The Trustees of Columbia University in the City of New York, priority 2004, dated 2015)",
  "type_in_all_cases": "cell-based, Human",
  "key": {"[1]": {"tested_on": "Ad-N1IC-transduced HUVEC", "experiment": "Notch-induced budding of Ad-N1IC-transduced HUVEC on gel", "conditions": "for Effect of receptor tyrosine kinase inhibitors on budding of Ad-N1IC-HUVEC: inhibitors at 1 μM, Ad-N1IC 40 MOI, complete medium", "description": "HUVEC were transduced with either Ad-LacZ or Ad-N1IC at 40 MOI. FIGS. 23A-23C show the effect of inhibitors for receptor tyrosine kinases on Notch-induced HUVEC budding. FIG. 23A is a photograph of budding of Ad-N1IC-transduced HUVEC treated with PD166866, ZD1893 at 1 μM and SU5416 at 0.5 μM. […] FIGS. 23F-G show promotion of Notch-induced HUVEC budding with PlGF stimulation. Ad-N1IC-transduced HUVEC were cultured on collagen gel with SFM, instead of complete medium, in the absence or presence of 50 ng/ml PlGF. […] FIGS. 23H-I show the effect of Flt-1 siRNA transfection on Flt1 expression. Ad-N1IC-transduced HUVEC were transfected with 200 pmol of either control (CT) or Flt-1 siRNA. […] Ad-N1IC-transduced HUVEC were transfected with either 100 or 200 pmol of siRNA and cultured on collagen gel for 2 days.\nEither Ad-LacZ or Ad-N1IC-HUVEC at a MOI of 40 pfu/cell were cultured on collagen gel for 5 days in the absence or presence of GM6001 at 50 μm.\nTo test whether Notch signaling is down-stream of VEGF, we evaluated three distinct inhibitors for receptor tyrosine kinases, including VEGFR on N1IC-induced HUVEC budding, because three growth factors existed in complete medium (FIG. 23A-C). […] Thus, we examined whether activation of Notch signaling affected Flt1/VNGFR1 expression in HUVEC, because SU5416 inhibits both Flt1 and Flk1 kinase activity (15). […] PlGF increased the number of Ad-N1IC-HUVEC buds by 150%, compared to the absence of PlGF (FIG. 23F). Moreover, PlGF increased HUVEC buds containing multiple filopodia by 250% (FIG. 23G)."}, "[2]": {"tested_on": "Notch signaling (CBF1 promoter activity) in HUVEC", "experiment": "VEGF-induced Notch signaling, CBF1 promoter / CSL-luciferase reporter activity in HUVEC", "conditions": "Ad-VEGF-transduced HUVEC, 20 MOI", "description": "To determine VEGF-induced Notch signaling, HUVEC which were infected with adenovirus were used. HUVEC plated 1-day prior in 6 well plates at 8.0×10^5 were infected with either Ad-LacZ as control or Ad-VEGF at indicated m.o.i. in the presence or absence of Ad-N1ECD/Fc. Two days after infection, infected HUVEC were re-seeded into 24-well plate at 1.5×10^5 cell in triplicate and cultured for 24 hours, and then transfected with 12.5 ng pRL-SV40 (Promega) and 137.5 ng pGA981-6 using Effectene transfection reagent (Qiagen). Cells were harvested either 1 or 2 days post-transfection and luciferase activity was determined by using the Dual-Luciferase® Reporter Assay System (Promega).\nOne can measure Notch signaling function by measuring transcriptional activity of CBF1 promoter, which is activated by binding of Notch-IC to CBF1. We measured CBF1 promoter activity in HUVEC which was infected with adenovirus encoding VECF-165 at different MOI (FIG. 6). Induction of CBF1 promoter was clearly detected in Ad-VEGF-infected HUVEC, compared to Ad-LacZ-infected cells in the MOI dependent manner. […] Thus VEGF induced Notch signaling activity."}, "[3]": {"tested_on": "HUVEC", "experiment": "HUVEC proliferation (CCK-8 kit)", "conditions": "SFM with 1% FBS, 4 days", "description": "These Figures show proliferation of Ad-VEGF165-transduced HUVEC. HUVEC were transduced with Ad-VEGF165 at the indicated dosages. Ad-LacZ was also co-infected to make the same total amount of adenovirus at a MOI of 40 pfu/cell. HUVEC were suspended in SFM supplemented with 1% FBS and then plated at 1×10^4 cells/well in 24-well multi-well plates with 0.4 ml of medium. After 4 days, cell numbers were determined using the CCK-8 kit and the results are indicated as the ratio of cell numbers determined to the number of control cells, which were transduced with Ad-GFP at a MOI of 40 pfu/cell. […] Ad-VEGF-transduced HUVEC were treated with SU5416 at the indicated dosages.\nThese Figures show the effect of alteration of Notch signaling on cell proliferation. The cells were transduced with the indicated adenoviruses. Ad-GFP was also co-infected to make the same total amount of adenovirus at a MOI of 60 pfu/cell. After 4 days, cell numbers were determined using the CCK-8 kit and results are indicated as the ratio of cell numbers determined to the number of control cells, which were transduced with AD-GFP at MOI of 60 pfu/cell. […] Transduced HUVEC were suspended in complete medium and then plated at 1×10^4 cells/well in 24-well multiwell plates with 0.4 ml of indicated medium (□: Ad-N1IC; ▪: Ad-N1ECDFc). […]"}},
  "note": "Entries after “also recorded” stand apart in the source; their conditions may differ.",
  "data": [
    {"molecule": "CNC(=O)[C@H](Cc1c[nH]c2ccccc12)NC(=O)[C@@H](CC(=O)NO)CC(C)C", "note": "[GM6001]", "values": [
      {"measurement": "Effect on budding of Ad-N1IC-HUVEC on collagen gel", "setting": "[1]; GM6001 at 50 μm, 5 days", "value": "inhibition of budding; also recorded: clearly decreased budding"},
      {"measurement": "Effect on budding of Ad-N1IC-HUVEC on fibrin gel", "setting": "[1]; data not shown", "value": "clearly decreased budding"}
    ]},
    {"molecule": "COc1cc(OC)cc(-c2cc3cnc(N)nc3nc2NC(=O)NC(C)(C)C)c1", "note": "[PD166866]", "values": [
      {"measurement": "Effect of receptor tyrosine kinase inhibitors on budding of Ad-N1IC-HUVEC", "setting": "[1]", "value": "Neither PD166866 or ZD1893 affected budding"}
    ]},
    {"molecule": "Cc1cc(C)c(/C=C2\\C(=O)Nc3ccccc32)[nH]1", "note": "[SU5416, reference compound]", "values": [
      {"measurement": "Effect of compound treatment on VEGF-induced CSL-luciferase reporter activity", "setting": "[2]", "value": "decreased VEGF-induced CSL-luciferase reporter activity"},
      {"measurement": "Effect of receptor tyrosine kinase inhibitors on budding of Ad-N1IC-HUVEC", "setting": "[1]", "value": "clearly inhibited"},
      {"measurement": "Dose-dependency of effect on budding versus viability of Ad-N1IC-HUVEC", "setting": "[1]; lower concentrations", "value": "selectively inhibited budding of Ad-N1IC-HUVEC with less reduction of viability at lower concentrations"},
      {"measurement": "Proliferation of Ad-VEGF-transduced HUVEC", "setting": "[3]", "value": "inhibitory effect"}
    ]},
    {"molecule": "COc1cc2ncnc(Nc3ccc(F)c(Cl)c3)c2cc1OCCCN1CCOCC1", "note": "[ZD1893]", "values": [
      {"measurement": "Effect of receptor tyrosine kinase inhibitors on budding of Ad-N1IC-HUVEC", "setting": "[1]", "value": "Neither PD166866 or ZD1893 affected budding"}
    ]},
    {"molecule": "PlGF: a selective ligand for Flt1 (protein, UniProt P49763 19-221, looked up) Placenta growth factor: LPAVPPQQWALSAGNGSSEVEVVPFQEVWGRSYCRALERLVDVVSEYPSEVEHMFSPSCVSLLRCTGCCGDENLHCVPVETANVTMQLLKIRSGDRPSYVELTFSQHVRCECRHSPGRQSPDMPGDFRADAPSFLPPRRSLPMLFRMEWGCALTGSQSAVWPSSPVPEEIPRMHPGRNGKKQQRKPLREKMKPERCGDAVPRR", "values": [
      {"measurement": "Increase of HUVEC buds containing multiple filopodia", "setting": "[1]; 50 ng/ml PlGF, SFM, collagen gel", "value": 250, "unit": "%"},
      {"measurement": "Increase of the number of Ad-N1IC-HUVEC buds", "setting": "[1]; 50 ng/ml PlGF, SFM, collagen gel, compared to the absence of PlGF", "value": 150, "unit": "%"}
    ]}
  ]
}
